Read-outs that look alike come from different tables or passages of the source.

Consider four compounds from article PMC10428205, “Cytotoxicity of Ruthenium(II) Arene Complexes Containing Functionalized Ferrocenyl β-Diketonate Ligands” (Organometallics, 2023).

In data set [1] the test system is MIA PaCa-2. Format: cell-based. How it is done:
LogP = Log ( [C]final ) Eqn1
96 h Chemosensitivity Studies
In vitro chemosensitivity tests were performed at both the University of Huddersfield and the Institute of Cancer Therapeutics, Bradford, in a sterile Class II Biological Safety Cabinet fitted with a HEPA filtered laminar airflow.
Cellular assays were conducted against human pancreatic carcinoma (MIA PaCa-2), human colorectal carcinoma p53-wildtype (HCT116 p53+/+), and human non-cancerous epithelial retinal cells (ARPE-19). […]
were obtained from the American Type Culture Collection and provided by the University of Huddersfield. All cell lines were routinely maintained as monolayer cultures in appropriate complete medium and maintained in either […]
T-25 or T-75 flasks at 37 °C and 5% CO2.
10% foetal calf serum. All medium was supplemented with sodium pyruvate (1 mM) and L-glutamine (2 mM), and prior to chemosensitivity studies, cell monolayers were passaged using Trypsin-EDTA and diluted to a […]
cells/mL cell suspension was added to each well and incubated for 24 h at 37 °C and 5% CO2. After 24 h, 100 mL of drug dilutions (fresh 100 mM stock solutions in DMSO) in media were added to the plates and then incubated for a further 96 h at 37°C and 5% CO2 (48 h + 48 h recovery period were used for the shorter exposures with MIA PaCa-2 cells only). After 96 h, 20 mL MTT (3-(4,5-dimethylthiazol-2-yl)-2,5-diphenyltetrazolium bromide, 5 mg/mL) was added to each well and incubated for 3 h at 37 °C and 5% CO2. All solutions were then removed from the 96-well plates via pipette and […] of DMSO added to each well to dissolve the purple formazan […]
FC spectrophotometer microplate reader. Using the blank and 100% cell controls, the % cell viability was determined [(abs. of compound containing wells – abs. media wells)/(abs. 100% cell suspension well control)] and from this the % cell death (100%- % cell viability) was calculated. On a logarithmic scale, the percentage cell death was plotted against the concentration of compound, and from this the half maximal inhibitory concentration (IC50) value was determined. Each of the experiments were performed in triplicate with mean values being stated as the IC50 ± Standard Deviation (SD). […]

A short description of a further data set: Cyclic voltammetry. To be noted: for E0′ (Fc*/Fc*+): 0.1 M TBAPF6 in acetonitrile, Fc/Fc+ = 0.40 V internal standard; for E0′ (Fc*/Fc*+) / EP Red: vs SCE; for EP Red: irreversible reduction; for E0’ (Fc*/Fc*+) at 0.05 V/s: scan speed 0.05 V/s; for E0’ (Fc*/Fc*+) at 0.10 V/s: scan speed 0.10 V/s; for E0’ (Fc*/Fc*+) at 0.25 V/s: scan speed 0.25 V/s.
In data set [2] the test system is MIA PaCa-2. Put plainly: Whole cell uptake by ICP-MS. Format: cell-based, human. The following applies: MIA PaCa-2, 10 μM, 48 h; for Whole cell uptake of Fe: ICP-MS. The method, then:
Cellular assays were conducted against human pancreatic carcinoma (MIA PaCa-2), human colorectal carcinoma p53-wildtype (HCT116 p53+/+), and human non-cancerous epithelial retinal cells (ARPE-19). The ARPE-19 cells were obtained from the American Type Culture Collection and provided by the University of Huddersfield. All cell lines were routinely maintained as monolayer cultures in appropriate complete medium and maintained in either T-25 or T-75 flasks at 37 °C and 5% CO2. MIA PaCa-2 and ARPE-19 cells were cultured in high glucose DMEM-F12 medium containing 10% foetal calf serum, and HCT116 p53+/+ was cultured in RPMI 1640 supplemented with […]
10% foetal calf serum. […]
Cell uptake assays were conducted using MIA PaCa-2 cells and these were maintained as described above. All assays were conducted in 6-well plates and cell concentrations of 1 x 10^5 cells/ well in 2 mL of complete cell media. These cell suspensions were added to the wells and incubated at 37°C and 5% CO2 for 24 h. The media was then removed, and 2 mL of media/copper compound was added to each well. For each compound, a concentration of 10 µM of ligands L1, L2, L4, L7 or complexes C1, C2, C4, C7 were used. The cells were incubated with the complexes for 48 h, before removing and discarding the media. The cell monolayers were then individually washed with PBS (3 x 1 mL) and all waste discarded. 0.25% Trypsin-EDTA (0.5 mL) was then added until the cells were removed from the surface of the wells and then diluted with media (1.5 mL). The contents of each well were transferred to separate Falcon tubes and centrifuged at 1500 rpm for 5 min. The supernatant was removed, the cell pellets were resuspended in PBS (1 mL) and centrifuged again at 1500 rpm for 5 min (this was completed 3 times). On the final time, the cells were counted before the last centrifuge and then pelleted and store in the freezer for ICP-MS analysis. All assays were conducted in triplicate.
Samples were then taken up in Optima high purity nitric acid, diluted to 10 mL with 1mL rhodium internal standard and 9 mL 18.2 Ultrapure water. The elemental contents of the samples were determined using ICP-MS-QQQ Thermo TQ spectrometer. Measurement of iron mass 56 and ruthenium isotope mass 100 was conducted by comparing solutions of known concentration and intensities. A series of standard calibration curves allows the concentration of each element to be determined. The standards were prepared by weight using 1000 mg/kg reference solutions. Operating conditions: cooling flow rate, 14.0 L/min, auxiliary gas flow rate, 0.8 L/min; sampling Depth 5 mm, additional gas flow 75 %, spray chamber 2.7 degrees, nebulizer flow rate, 1.144 L/min pump speed 15 rpm, RF power of 1,550 W.
Analysis of cellula r DNA damage by the Comet assay […]

Where [3] appears, read: 96 h MTT, normoxic, ± SD, read-out: IC50 against MIA PaCa-2.

Method for Cyclic voltammetry: To test that the redox potential is within a biological relevant region, cyclic voltammetry (CV) experiments are conducted on complexes 1, 2, 4, and 7 and their corresponding ferrocenyl β-diketonate ligands L1, L2, L4, and L7 for reference.
Inlet: scan of the fully reversible Fc*/Fc*^+ redox couple of 4 using scanning speeds between 0.05 and 0.25 V/s.

Turning to `O=C(C=C(O)C(F)(F)F)[c-]1cccc1.[Fe+2].c1cc[cH-]c1` [Complex L7], the IC50 in the data set on MIA PaCa-2 [1] (setting [3]) amounted to 17 ± 1 µM. Besides, in “Cyclic voltammetry”, the “E0′ (Fc*/Fc*+)” value amounted to 0.71 V, the “EP Red” value is “–1.42 V”, the “E0’ (Fc*/Fc*+) at 0.05 V/s” value is on record as 0.71 V and the “E0’ (Fc*/Fc*+) at 0.10 V/s” value came out at 0.71 V. Also, the “E0’ (Fc*/Fc*+) at 0.25 V/s” value in “Cyclic voltammetry” is on record as 0.71 V. Also, in the data set with MIA PaCa-2 [2], the “increase in Fe uptake compared to the control” value is “ca. 1.7 ×” and the “Whole cell uptake of Fe” value was determined as 1536 ± 202 ng Fe/10^6 cells.

On to `CC(O)=CC(=O)[c-]1cccc1.[Fe+2].c1cc[cH-]c1` [Complex L1], for which the IC50 in the data set on MIA PaCa-2 [1] (setting [3]) turned out to be 59 ± 2 µM. For the same compound, in the data set “Cyclic voltammetry”, the “E0′ (Fc*/Fc*+)” value turned out to be 0.63 V, the “EP Red” value is on record as “–1.98 V”, the “E0’ (Fc*/Fc*+) at 0.05 V/s” value stood at 0.63 V and the “E0’ (Fc*/Fc*+) at 0.10 V/s” value is on record as 0.62 V. Also, the “E0’ (Fc*/Fc*+) at 0.25 V/s” value in “Cyclic voltammetry” amounted to 0.63 V. In the data set on MIA PaCa-2 [2], the “Whole cell uptake of Fe” value is 2661 ± 974 ng Fe/10^6 cells.

In the case of `[NH2][Pt]([NH2])([Cl])[Cl]` [CDDP, cisplatin, reference compound], the “Selectivity index (SI), IC50 ARPE-19 / IC50 MIA PaCa-2” value in the data set with MIA PaCa-2 [1] (96 h, * = minimum value as at least one IC50 > 100) worked out at 1.7. Besides, the IC50 was found to be 3.6 ± 0.7 µM in the data set with MIA PaCa-2 [1] (setting [3]) and 3.6 ± 0.7 µM in the data set with MIA PaCa-2 [1] (MIA PaCa-2, 96 h, read-out: IC50 values ± SD (Table S14)).

With `O=C(C=C(O)c1ccccc1)[c-]1cccc1.[Fe+2].c1cc[cH-]c1` [Complex L2], in the data set with MIA PaCa-2 [1] (setting [3]), the IC50 amounted to 38.7 ± 0.8 µM. Further, in the data set “Cyclic voltammetry”, the “E0′ (Fc*/Fc*+)” value is given as 0.63 V, the “EP Red” value was “–1.73 V”, the “E0’ (Fc*/Fc*+) at 0.05 V/s” value turned out to be 0.63 V and the “E0’ (Fc*/Fc*+) at 0.10 V/s” value is reported as 0.63 V. For the same compound, the “E0’ (Fc*/Fc*+) at 0.25 V/s” value in the data set “Cyclic voltammetry” amounted to 0.63 V. In addition, in the data set on MIA PaCa-2 [2], the “Whole cell uptake of Fe” value is 2524 ± 458 ng Fe/10^6 cells.
